Values after ≈ are worked out from the molar mass of the structure shown. Values joined by “and” are separate entries in the source; they are usually repeats but may differ in a detail not shown here. Identical values can stand only once. Like-named read-outs stand apart in the source and are kept apart here.
Key:
[1] = tested on: G. duodenalis trophozoites; experiment: In vitro susceptibility, subculture in liquid medium (SCLM); format: cell-based, Giardia duodenalis (WB strain); conditions: SCLM; for IC50: Giardia duodenalis
[2] = tested on: G. duodenalis trophozoites; experiment: In vitro susceptibility, direct cell count (DCC); format: cell-based, Giardia duodenalis (WB strain); conditions: 24 h exposure
[3] = tested on: G. duodenalis trophozoites; experiment: In vitro susceptibility, MTT reduction; format: cell-based, Giardia duodenalis (WB strain)
[4] = tested on: G. duodenalis trophozoites; experiment: In vitro susceptibility, FDA-PI staining; format: cell-based, Giardia duodenalis (WB strain); conditions: 24 h exposure
[5] = tested on: G. duodenalis trophozoites; experiment: In vitro susceptibility, trypan blue exclusion (TBE); format: cell-based, Giardia duodenalis (WB strain); conditions: 24 h exposure
Method: G. duodenalis trophozoites from the WB strain (ATCC # 30957) were axenically cultured in modified Diamond's TYI-S-33 medium (Keister, [1983]) without bile at 37°C. Cell harvests were carried out by chilling flasks at the log phase of growth reached after 72–96 h routine subcultures. Detached trophozoites were either directly counted in a haemocytometer or washed 3 times with phosphate buffer saline (PBS) prior to counting and the cell number was adjusted as required in the assays.
When complete TYI-S-33 medium (final cysteine concentration = 12.4 mM) was used, it was no older than 10 days to avoid cysteine oxidation. […] Parasites were harvested and counted and trophozoite's viability was determined by physiological methods to determine the growth capacity of trophozoites after drug exposure (subculture in liquid medium SCLM)] or trophozoite and membrane integrity [direct cell count (DCC) and trypan blue exclusion (TBE), respectively]. […] All these protocols have been described elsewhere (Argüello-García et al., [2004]) except that DCC values were calculated from total cell numbers of compound-exposed trophozoites divided by the initial trophozoites' inoculum (1 × 10^6) and TBE was performed by incubating PBS-washed parasites in a trypan blue solution (0.4% [w/v] final concentration) for 5 min at room temperature followed by microscopic count of “stained” (non-viable) parasites. […]

[6] = tested on: thiol groups exposed in G. duodenalis trophozoite proteins; experiment: Thiol-modifying activity (inhibition of thiol-DTNB complexes); format: biochemical, Giardia duodenalis; conditions: 100 μg soluble trophozoite protein, 10 min 37°C, DTNB 412 nm
Method: The technique reported by Lawson and Wang ([1993]) was followed. In these assays trophozoites were collected from 60 mL flasks, washed 3 times with PBS and resuspended in 500 μL PBS containing a 1:12.5 dilution of a commercial mixture of protease inhibitors (Complete^TM, Roche Diagnostics GmbH, Indianapolis, IN, USA) and lysed by sonication at 12 microns/60% amplitude (Ultrasonic apparatus Sonic UVX1130PB). Soluble proteins were recovered by centrifugation at 15,400 × g for 30 min at 4°C and protein concentration was determined by the Bradford technique. These samples were adjusted to a concentration of 1 mg/mL. Reactions were carried out in 1.5 mL microcentrifuge tubes with a mixture of 100 μg protein (100 μL) and NaH2PO4 45 mM pH 7.0 mM (800 μL) to which increasing volumes of TACs stocks or a positive control with the thiol derivatizing agent MMTS prepared at 50 mM in the same buffer, were added and total volume was adjusted to 1 mL. After incubation for 10 min at 37°C, 100 μL of 1.5 mM dithionitrobenzoic acid (DTNB, Ellman's reagent) were added to each tube and following incubation for 10 min at room temperature the absorbances (yellow solutions) were recorded at 412 nm (Smart Spec 3000^TM, Bio-Rad, Hercules, CA, USA). A calibration curve was obtained using increasing volumes (0–100 μL) of 15.5 mM cysteine instead protein extracts and the maximal blocking concentration (MBC) corresponding to a complete absence of thiol-DTNB complexes produced by TACs were calculated using the least-square method (Microsoft Excel^TM).

Spironucleus vortens = tested on: Spironucleus vortens; parameters: method as in Millet et al., 2011; conditions: ref Millet et al., 2011; cited from earlier work
Eimeria tenella = tested on: Eimeria tenella; parameters: method as in Alnassan et al., 2015; conditions: ref Alnassan et al., 2015; cited from earlier work
Plasmodium berghei = tested on: Plasmodium berghei; parameters: method as in Coppi et al., 2006; conditions: mice, ref Coppi et al., 2006, cited from earlier work
[7] = mouse, no reference given; cited from earlier work
[8] = rat, no reference given; cited from earlier work
[9] = Storage stability of allicin; conditions: 1.5% (w/v) in water, 1 mL aliquots at −70°C
Method: For stabilization and storage of ALC, the oily product was resuspended in water at 1.5% (w/v) and kept in 1 mL aliquots at −70°C until analyzed and used.

[10] = Tolerability and lethality in gerbils
Method: Eighty male Mongolian gerbils (M. unguiculatus) 6–10 weeks old, weighted 45–60 g and sentinel-checked gerbils free of intestinal parasites were kept in individual cages and distributed in 12 groups of 6 animals per treatment and experimental infections were performed as described elsewhere (Argüello-García and Ortega-Pierres, [1997]). In brief, animals were inoculated intragastrically with 1 × 10^6 G. duodenalis trophozoites in 500 μl sterile PBS per os using gavage under ether anesthesia. Control animals received 500 μl sterile PBS each. […] As additional control, one group of animals received MTZ (38.4 mg/kg at single or double dose). […] Treatment efficacy was evaluated by determining the presence or absence of trophozoites in intestinal contents of control and treated gerbils at day 13 post-infection. […] Supernatant was collected and centrifuged at 750 × g for 10 min at 4°C, cell pellet was resuspended in 1 mL PBS and trophozoites were counted using a haemocytometer. Gerbils were scored as cured if no trophozoites were recovered from infected animals.

Compound: C=CCS[S+]([O-])CC=C (stereo not drawn) [ALC, diallyl thiosulfinate]
- IC50 ([1]; 24 h exposure (Figure 6B), read-out: IC50 ± SD): 0.322 ± 0.023 mM
- IC50 ([1]; 24 h exposure, read-out: IC50 (mM) ±SD): 0.32 ± 0.02 mM
- MLC (mM) ±SD ([1]; 24 h exposure): 0.6 mM (≈ 97.4 µg/mL)
- concentration at which parasite replication was suppressed ([1]; 24 h exposure): 600 µM
- MLC (mM) ±SD ([1]; 24 h exposure, listed as Allicin): 0.600 ± 0.016 mM (≈ 97.4 µg/mL)
- MLC (mM) ±SD [2]: 1.08 mM (≈ 175 µg/mL)
- MLC (mM) ±SD ([2]; listed as Allicin): 1.088 ± 0.24 mM (≈ 177 µg/mL)
- IC50 ([2]; Giardia duodenalis): 369 ± 21 µM
- IC50 ([3]; Giardia duodenalis, MTT assay, value as quoted in Discussion): 686 µM
- MLC (mM) ±SD ([3]; MTT, 24 h exposure): 1.490 ± 0.025 mM (≈ 242 µg/mL)
- MLC (mM) ±SD [4]: 1.285 ± 0.18 mM (≈ 209 µg/mL)
- IC50 ([4]; Giardia duodenalis): 536 ± 103 µM
- MLC (mM) ±SD [5]: 1.12 mM and 1.127 ± 0.05 mM
- IC50 ([5]; Giardia duodenalis): 405 ± 38 µM
- MBC (maximal blocking concentration) ± SD [6]: 93.8 mmol/mg protein and 93.84 ± 12.8 mmol/mg protein
- IC50 (Spironucleus vortens): > 1120 µM
- IC99 (Eimeria tenella): 11.1 mM
- mortality (Plasmodium berghei; 4 daily doses of 8 mg/kg intravenously): markedly reduced mortality
- mortality (Plasmodium berghei; 4 daily doses of 9 mg/kg orally): markedly reduced mortality
- oral lethality [7]: 300 mg/kg
- oral lethality [8]: 980 mg/kg
- time of retained full activity on storage [9]: up to 6 months
- irritation in intestinal epithelium ([10]; 276 mg/kg single dose, treated non-infected animals, surgical examination): noticeable irritation in intestinal epithelium
- lethal dose ([10]; intragastric route, gerbils): > 400 mg/kg
